Test results: patent US8618290B2, “HSP90 inhibitors” (Takeda Pharmaceutical Company Limited, priority 2008, dated 2013)

Biological target: human HSP90a (recombinant N-terminal nucleotide binding domain) (Homo sapiens (Human), UniProt P07900)
Test: Competition fluorescence polarization binding assay with TSD-FP probe
Settings: method of Example A-1; incubation time not stated; read-out: Binding Affinity IC50
Procedure: The reaction can be followed kinetically using fluorescence (excitation λ=485 nm; emission λ=538 nm). The binding affinity of the test compound to HSP90 is determined by the changes in the polarized fluorescence; the intensity of the polarized fluorescence is proportional to the fraction of bound probe. A novel small molecule fluorescence probe, (S,E)-5-(2-(2-amino-7-(4-fluoro-2-(6-methoxypyridin-2-yl)phenyl)-4-methyl-7,8-dihydroquinazolin-5(6H)-ylideneaminooxy)ethylcarbamoyl)-2-(6-hydroxy-3-oxo-3H-xanthen-9-yl)benzoic acid (TSD-FP probe) was specifically developed for the assay. Inhibition constants (IC50) may be calculated by non-linear curve fitting of the compound concentrations and fluorescence intensities to the standard IC50 equation.
The sequence of human wild-type HSP90a is well known in the art; see, Chen B. et al. Genomics 2005.86:627-637. The gene encoding HSP90a can be isolated from RNA, cDNA or cDNA libraries. In this case, the gene encoding residues 9-236 of image clone 5270926 of HSP90α (ATCC) was isolated. This portion of the gene encoding a section of human HSP90a that includes the N-terminal nucleotide binding domain of human HSP90a was cloned into pET28a vector (Novagen). The DNA sequence of the vector is shown in SEQ ID NO: 1. Expression from this vector produced a protein consisting of the recombinant N-terminal nucleotide binding domain of HSP90a with a cleavable 6′-histidine tag and a cleavage site at the N-terminus The amino acid sequence of this recombinant protein is shown in SEQ ID NO: 2.
Recombinant human N-terminal truncated His6-HSP90a was expressed in E. coli (BL21) cells with IPTG induction. Cell paste from 24×60 mL tubes (grown in a multi-tube airlift fermentor) was lysed using an automated sample lyser. Briefly, the pellet in each tube was suspended in 21 mL of lysis buffer consisting of 50 mM Tris pH 7.9, 50 mM NaCl, 1 mM MgCl2, 0.6 g/L Lysozyme (Sigma), 100 μL/L Benzonase (Novagen). […] After incubation, 5 M NaCl was added to bring the final salt concentration to 400 mM. The tubes were sonicated for 50 seconds and then centrifuged at 3400 rpm for 50 min. The supernatants were pooled and 4 ml of ProBond Ni resin (Invitrogen) was added. After at least 30 minutes, the resin was spun down, washed with 25 mM Tris pH 7.6, 400 mM NaCl, 20 mM imidazole, poured into a column and washed with 10 column volumes of the same buffer. The protein was eluted from the column using 3 column volumes of 25 mM Tris pH 7.6, 400 mM NaCl, 400 mM imidazole. The eluate was loaded onto a Supedex 200 column (GE Healthcare) equilibrated with 25 mM Tris pH 7.6, 250 mM NaCl, 0.25 mM TCEP, 1 mM EDTA and peak fractions were pooled and concentrated to ˜6 mg/mL using 10 kDA MWCO centrifugal concentrators (Millipore). Aliquots were flash frozen in liquid nitrogen and stored at −80° C. All purification was done at 4° C.
A fluorescein labeled small molecule was designed and synthesized as a probe (TSD-FP probe) for the determination of the binding affinity of the test compound to HSP90 proteins. The synthesis of the small molecule, (S,E)-2-amino-7-(4-fluoro-2-(6-methoxypyridin-2-yl)phenyl)-4-methyl-7,8-dihydroquinazolin-5(6H)-one O-2-aminoethyl oxime (Compound 24) was described in Examples 24 and 25 above. The TSD-FP probe was prepared according to the following procedure:
The inhibitory effect of the compounds of the invention against HSP90a was determined by fluorescence polarization assay. The assay was run in a black 384-well-plate and in an assay buffer comprising 25 mM Hepes pH 7.3, 150 mM NaCl, 0.1 mM EDTA, 0.01% Brij35, 1 mM DTT.
To each test well, an aliquot of buffer, 2 μl of test compound in 10% DMSO, 4 μl of 6.25 nM of TSD FP probe, 4 μl of 12.5 nM of purified HSP90a protein were added. […] For negative control, no inhibitor was added.

Row | SMILES | IC50 [nM]
1 | COc1cccc(-c2cc(F)ccc2[C@H]2Cc3nc(N)nc(C)c3/C(=N/OC[C@H]3O[C@@H](OC)[C@H](O)[C@@H]3O)N2)n1 (mixture of isomers) [Compound 45, (R,Z)-2-amino-7-(4-fluoro-2-(6-methoxypyridin-2-yl)phenyl)-4-methyl-7,8-dihydropyrido[4,3-d]pyrimidin-5(6H)-one O-((2R,3S,4R,5R)-3,4-dihydroxy-5-methoxytetrahydrofuran-2-yl)methyl oxime] | 10
2 | COc1cccc(-c2cc(F)ccc2[C@H]2Cc3nc(N)nc(C)c3/C(=N/OCC(CO)CO)N2)n1 [Compound 35, (R,Z)-2-Amino-7-(4-fluoro-2-(6-methoxypyridin-2-yl)phenyl)-4-methyl-7,8-dihydropyrido[4,3-d]pyrimidin-5(6H)-one O-3-hydroxy-2-(hydroxymethyl)propyl oxime] | 13
3 | COc1cccc(-c2cc(F)ccc2[C@H]2Cc3nc(N)nc(C)c3/C(=N/OCC(=O)N(C)C[C@H](O)CO)N2)n1 [Compound 96, 2-((Z)—((R)-2-amino-7-(4-fluoro-2-(6-methoxypyridin-2-yl)phenyl)-4-methyl-7,8-dihydropyrido[4,3-d]pyrimidin-5(6H)-ylidene)aminooxy)-N—((S)-2,3-dihydroxypropyl)-N-methylacetamide] | 13
4 | COc1cccc(-c2cc(F)ccc2[C@H]2Cc3nc(N)nc(C)c3/C(=N/O[C@@H](CCO)C(=O)N(C)C)N2)n1 [Compound 93, (S)-2-((Z)—((R)-2-amino-7-(4-fluoro-2-(6-methoxypyridin-2-yl)phenyl)-4-methyl-7,8-dihydropyrido[4,3-d]pyrimidin-5(6H)-ylidene)aminooxy)-4-hydroxy-N,N-dimethylbutanamide] | 8
5 | COc1cccc(-c2cc(F)ccc2[C@H]2Cc3nc(N)nc(C)c3/C(=N/OCC(=O)N(C)C)N2)n1 [Compound 83, (R,Z)-2-(2-amino-7-(4-fluoro-2-(6-methoxypyridin-2-yl)phenyl)-4-methyl-7,8-dihydropyrido[4,3-d]pyrimidin-5(6H)-ylideneaminooxy)-N,N-dimethylacetamide] | 8
6 | COc1cccc(-c2cc(F)ccc2[C@H]2Cc3nc(N)nc(C)c3/C(=N/OC[C@H](O)CO)N2)n1 [Compound 33, (R,Z)-2-Amino-7-(4-fluoro-2-(6-methoxypyridin-2-yl)phenyl)-4-methyl-7,8-dihydropyrido[4,3-d]pyrimidin-5(6H)-one O—(R)-2,3-dihydroxypropyl oxime] | 4
7 | COc1cccc(-c2cc(F)ccc2[C@H]2Cc3nc(N)nc(C)c3/C(=N/OCC(=O)N(C)CCO)N2)n1 [Compound 99, (R,Z)-2-(2-amino-7-(4-fluoro-2-(6-methoxypyridin-2-yl)phenyl)-4-methyl-7,8-dihydropyrido[4,3-d]pyrimidin-5(6H)-ylideneaminooxy)-N-(2-hydroxyethyl)-N-methylacetamide] | 8
8 | COc1cccc(-c2cc(F)ccc2[C@H]2Cc3nc(N)nc(C)c3/C(=N/OCC3CCC(O)CC3)N2)n1 (stereo partly drawn) [Compound 65, (R,Z)-2-amino-7-(4-fluoro-2-(6-methoxypyridin-2-yl)phenyl)-4-methyl-7,8-dihydropyrido[4,3-d]pyrimidin-5(6H)-one O-((1s,4S)-4-hydroxycyclohexyl)methyl oxime] | 10

Continued by falling IC50, values first:

Row | IC50 [nM] | SMILES
9 | 8 | COc1cccc(-c2cc(F)ccc2[C@H]2Cc3nc(N)nc(C)c3/C(=N/OCC3C[C@@H](O)[C@@H](O)C3)N2)n1 (stereo partly drawn) [Compound 59, (7R,Z)-2-amino-7-(4-fluoro-2-(6-methoxypyridin-2-yl)phenyl)-4-methyl-7,8-dihydropyrido[4,3-d]pyrimidin-5(6H)-one O-((3R,4S)-3,4-dihydroxycyclopentyl)methyl oxime]
10 | 6 | COc1cccc(-c2cc(F)ccc2[C@H]2Cc3nc(N)nc(C)c3/C(=N/OCCCCO)N2)n1 [Compound 79, (R,Z)-2-amino-7-(4-fluoro-2-(6-methoxypyridin-2-yl)phenyl)-4-methyl-7,8-dihydropyrido[4,3-d]pyrimidin-5(6H)-one O-4-hydroxybutyl oxime]
11 | 6 | COc1cccc(-c2cc(F)ccc2[C@H]2Cc3nc(N)nc(C)c3/C(=N/OCC[C@H](O)CO)N2)n1 [Compound 37, (R,Z)-2-amino-7-(4-fluoro-2-(6-methoxypyridin-2-yl)phenyl)-4-methyl-7,8-dihydropyrido[4,3-d]pyrimidin-5(6H)-one O—(S)-3,4-dihydroxybutyl oxime]
12 | 5 | COc1cccc(-c2cc(F)ccc2[C@H]2Cc3nc(N)nc(C)c3/C(=N/OC3C[C@@H](O)[C@@H](O)C3)N2)n1 (stereo partly drawn) [Compound 58, (7R,Z)-2-amino-7-(4-fluoro-2-(6-methoxypyridin-2-yl)phenyl)-4-methyl-7,8-dihydropyrido[4,3-d]pyrimidin-5(6H)-one O-(3R,4S)-3,4-dihydroxycyclopentyl oxime]
13 | 4 | COc1cccc(-c2cc(F)ccc2[C@H]2Cc3nc(N)nc(C)c3/C(=N/OCCCO)N2)n1 [Compound 78, (R,Z)-2-amino-7-(4-fluoro-2-(6-methoxypyridin-2-yl)phenyl)-4-methyl-7,8-dihydropyrido[4,3-d]pyrimidin-5(6H)-one O-3-hydroxypropyl oxime]
14 | 4 | COc1cccc(-c2cc(F)ccc2[C@H]2Cc3nc(N)nc(C)c3/C(=N/OCC(=O)N3CC[C@@H](F)C3)N2)n1 [Compound 85, 2-((Z)—((R)-2-amino-7-(4-fluoro-2-(6-methoxypyridin-2-yl)phenyl)-4-methyl-7,8-dihydropyrido[4,3-d]pyrimidin-5(6H)-ylidene)aminooxy)-1-((R)-3-fluoropyrrolidin-1-yl)ethanone]
15 | 3 | COc1cccc(-c2cc(F)ccc2[C@H]2Cc3nc(N)nc(C)c3/C(=N/O)N2)n1 [Compound 61, (R,Z)-2-amino-7-(4-fluoro-2-(6-methoxypyridin-2-yl)phenyl)-4-methyl-7,8-dihydropyrido[4,3-d]pyrimidin-5(6H)-one oxime]
